Assays:
integrin α4β1 = molecular target: T1, integrin α4β1 (Homo sapiens, UniProt P05556+P13612); assay: VCAM antagonist activity (VCAM-1/α4β1 binding assay); format: cell-based; details: Jurkat cells binding to VCAM-1; read-out: VCAM antagonistic activity (IC50) α4β1
T1 construct: cell strain Jurkat (ATCC TIB-152) of human T cells, known to express integrin α4β1; host or cells: Jurkat (human T cell line)
Procedure, shortened: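 Plates coated overnight at 4° C with recombinant human VCAM-1 (500 ng/ml, pH 9.6) and blocked. Calcein-AM-labelled Jurkat cells (α4β1) added with compound in HEPES/DMEM/0.1% BSA, 30 min at room temperature; unbound cells shaken off, bound fluorescence read at 485/535 nm. IC50 from binding relative to compound-free wells.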

integrin α4β7 = molecular target: T2, integrin α4β7 (Homo sapiens, UniProt P13612+P26010); assay: VCAM antagonistic activity (VCAM-1/α4β7 binding assay); format: cell-based; details: RPMI-8866 cells binding to VCAM-1; read-out: VCAM antagonistic activity (IC50) α4β7
T2 construct: lymphoma cell strain RPMI-8866 of human B cells, known to express integrin α4β7; endogenous in cells; host or cells: RPMI-8866 (human B lymphoma cell line)
T2 sequence (P13612 34-1032): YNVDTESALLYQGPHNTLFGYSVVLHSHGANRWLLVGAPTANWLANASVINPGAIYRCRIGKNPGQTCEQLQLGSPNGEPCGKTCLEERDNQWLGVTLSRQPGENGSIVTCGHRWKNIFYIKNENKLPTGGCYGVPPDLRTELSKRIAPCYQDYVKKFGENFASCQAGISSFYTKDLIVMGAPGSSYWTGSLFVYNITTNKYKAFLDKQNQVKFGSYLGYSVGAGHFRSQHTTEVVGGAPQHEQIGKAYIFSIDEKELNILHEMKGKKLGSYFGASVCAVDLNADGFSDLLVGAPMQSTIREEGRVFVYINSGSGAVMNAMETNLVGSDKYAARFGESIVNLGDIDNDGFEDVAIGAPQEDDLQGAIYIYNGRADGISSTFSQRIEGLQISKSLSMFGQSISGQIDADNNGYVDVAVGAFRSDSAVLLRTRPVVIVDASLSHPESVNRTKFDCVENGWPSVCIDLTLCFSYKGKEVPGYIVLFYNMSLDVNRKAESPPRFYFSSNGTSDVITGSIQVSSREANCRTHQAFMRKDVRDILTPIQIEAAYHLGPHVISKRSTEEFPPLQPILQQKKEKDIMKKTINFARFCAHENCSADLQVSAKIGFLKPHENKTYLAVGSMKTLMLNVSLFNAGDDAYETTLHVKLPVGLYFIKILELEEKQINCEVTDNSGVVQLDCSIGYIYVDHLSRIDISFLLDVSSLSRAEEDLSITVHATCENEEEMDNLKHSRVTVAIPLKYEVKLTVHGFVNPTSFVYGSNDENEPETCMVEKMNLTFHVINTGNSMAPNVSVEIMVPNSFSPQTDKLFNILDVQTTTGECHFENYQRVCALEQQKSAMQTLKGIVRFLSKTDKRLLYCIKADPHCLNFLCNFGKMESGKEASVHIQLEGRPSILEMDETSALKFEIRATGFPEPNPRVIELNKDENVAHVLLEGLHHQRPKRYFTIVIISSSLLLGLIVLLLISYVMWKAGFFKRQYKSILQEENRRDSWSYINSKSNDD
T2 sequence (P26010 20-798): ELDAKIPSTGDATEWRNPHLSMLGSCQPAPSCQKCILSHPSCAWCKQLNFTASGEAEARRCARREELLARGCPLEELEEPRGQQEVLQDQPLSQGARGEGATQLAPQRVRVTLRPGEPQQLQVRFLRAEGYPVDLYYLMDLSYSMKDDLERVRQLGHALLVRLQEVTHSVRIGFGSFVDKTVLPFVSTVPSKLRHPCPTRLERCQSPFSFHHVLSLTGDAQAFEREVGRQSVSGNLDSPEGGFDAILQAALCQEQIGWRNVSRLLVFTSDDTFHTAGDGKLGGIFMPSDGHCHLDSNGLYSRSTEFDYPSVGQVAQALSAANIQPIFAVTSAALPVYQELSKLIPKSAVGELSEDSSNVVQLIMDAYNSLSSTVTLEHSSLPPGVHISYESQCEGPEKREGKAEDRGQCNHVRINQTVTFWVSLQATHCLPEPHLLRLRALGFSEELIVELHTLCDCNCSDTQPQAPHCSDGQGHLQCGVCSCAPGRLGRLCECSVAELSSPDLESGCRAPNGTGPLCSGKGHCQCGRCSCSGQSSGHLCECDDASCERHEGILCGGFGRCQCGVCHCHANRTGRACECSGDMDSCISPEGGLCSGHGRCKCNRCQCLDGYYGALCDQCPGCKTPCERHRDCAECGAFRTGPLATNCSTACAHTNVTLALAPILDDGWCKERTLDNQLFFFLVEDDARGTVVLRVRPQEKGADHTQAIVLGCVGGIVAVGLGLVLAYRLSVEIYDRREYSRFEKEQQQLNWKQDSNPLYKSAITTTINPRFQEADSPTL
Procedure, shortened: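 Calcein-AM-labelled human B-lymphoma RPMI-8866 cells bound to plate-coated recombinant human VCAM-1 in HEPES/DMEM/0.1% BSA with 4 mM MnCl2, with compound, 30 min at room temperature. Unbound cells removed by shaking; bound-cell fluorescence (ex 485/em 535 nm) versus compound-free wells gave IC50, binned.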

T1 sequence (P05556 21-798, one chain of several): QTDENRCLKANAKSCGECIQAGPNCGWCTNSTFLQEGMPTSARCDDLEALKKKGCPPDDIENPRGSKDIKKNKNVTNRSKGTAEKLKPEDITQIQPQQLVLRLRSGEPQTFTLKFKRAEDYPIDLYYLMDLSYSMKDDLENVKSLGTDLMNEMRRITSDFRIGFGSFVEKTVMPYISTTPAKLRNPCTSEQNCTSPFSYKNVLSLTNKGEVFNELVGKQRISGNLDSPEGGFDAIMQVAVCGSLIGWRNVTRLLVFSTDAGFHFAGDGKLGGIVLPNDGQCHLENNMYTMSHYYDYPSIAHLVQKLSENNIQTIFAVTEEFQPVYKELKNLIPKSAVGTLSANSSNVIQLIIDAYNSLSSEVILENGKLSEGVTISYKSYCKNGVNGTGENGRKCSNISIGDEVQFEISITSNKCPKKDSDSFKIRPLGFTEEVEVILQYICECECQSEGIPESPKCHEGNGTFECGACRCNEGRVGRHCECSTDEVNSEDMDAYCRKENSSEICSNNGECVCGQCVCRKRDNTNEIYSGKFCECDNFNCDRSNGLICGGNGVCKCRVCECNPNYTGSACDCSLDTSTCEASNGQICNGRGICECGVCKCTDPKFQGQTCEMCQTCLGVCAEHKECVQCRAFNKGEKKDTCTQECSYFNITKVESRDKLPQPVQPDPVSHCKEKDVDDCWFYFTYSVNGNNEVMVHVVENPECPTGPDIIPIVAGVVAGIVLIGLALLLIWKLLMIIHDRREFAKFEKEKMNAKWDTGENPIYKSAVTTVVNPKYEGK

IC50 (integrin α4β1) | IC50 (integrin α4β7) | SMILES
20 to 100 nM | < 20 nM | CCC(CC)(C(=O)N[C@@H](Cc1ccc(OCc2c(Cl)cccc2Cl)cc1)C(=O)O)C(=O)N1C[C@@H](O)[C@H](O)C1 (relative stereo) [Example 83, N-(2-{[(trans-3,4-dihydroxypyrrolidine)-1-yl]carbonyl}-2-ethyl-butanoyl)-O-(2,6-dichlorobenzyl)-L-tyrosine]
100 to 2000 nM | < 20 nM | O=C(O)[C@H](Cc1ccc(OCc2c(Cl)cccc2Cl)cc1)NC(=O)C1(C(=O)N2CC[C@@H](O)C2)CCOCC1 [Example 467]
100 to 2000 nM | 100 to 2000 nM | COc1ccc(Br)c(C(=O)Nc2ccc(C[C@H](NC(=O)C3(C(=O)N(C)C)CC3)C(=O)O)cc2)c1 [Example 89]
100 to 2000 nM | < 20 nM | C#CCn1c(=O)n(-c2ccc(C[C@H](NC(=O)C(CC)(CC)C(=O)N3CCCC3)C(=O)O)cc2)c(=O)c2ccccc21 [Example 102]
100 to 2000 nM | < 20 nM | CCC(CC)(C(=O)N[C@@H](Cc1ccc(OCc2c(Cl)cccc2Cl)cc1)C(=O)O)C(=O)N1CC[C@@H](N(C)C)C1 [Example 44]
100 to 2000 nM | 20 to 100 nM | CCC(CC)(C(=O)N[C@@H](Cc1ccc(OCc2c(Cl)cccc2Cl)cc1)C(=O)O)C(=O)N1CC[C@@H](NC(=O)C(F)(F)F)C1 [Example 63]
100 to 2000 nM | < 20 nM | CCC(CC)(C(=O)N[C@@H](Cc1ccc(OCc2c(Cl)cccc2Cl)cc1)C(=O)O)C(=O)N1CC[C@@H](F)C1 [Example 84]
100 to 2000 nM | < 20 nM | CCC(CC)(C(=O)N[C@@H](Cc1ccc(OCc2c(Cl)cccc2Cl)cc1)C(=O)O)C(=O)N1CC[C@@H](N)C1 [Example 76]
100 to 2000 nM | 100 to 2000 nM | CCC(CC)(C(=O)NC(Cc1ccc(OCc2c(Cl)cccc2Cl)cc1)C(=O)O)C(=O)N1CCCC(CO)C1 (mixture of isomers) [Example 60]
100 to 2000 nM | 20 to 100 nM | CCC(CC)(C(=O)N[C@@H](Cc1ccc(OCc2c(Cl)cccc2Cl)cc1)C(=O)O)C(=O)N1CCN(C(C)=O)CC1 [Example 464]
100 to 2000 nM | 20 to 100 nM | CCC(CC)(C(=O)N[C@@H](Cc1ccc(-c2c(OC)cccc2OC)cc1)C(=O)O)C(=O)N(C)C [Example 104]
100 to 2000 nM | 100 to 2000 nM | O=CN1CCN(C(=O)C2(C(=O)N[C@@H](Cc3ccc(OCc4c(Cl)cccc4Cl)cc3)C(=O)O)CCC2)CC1 [Example 463]
2000 to 10000 nM | 100 to 2000 nM | CN(C)C(=O)C1(C(=O)N[C@@H](Cc2ccc(OCc3c(Cl)cccc3Cl)cc2)C(=O)O)CC1 [Example 21]
20 to 100 nM | < 20 nM | CCC(CC)(C(=O)N[C@@H](Cc1ccc(NC(=O)c2nc(NC)ncc2Cl)cc1)C(=O)O)C(=O)N1CCCC1 [Example 484]
100 to 2000 nM | < 20 nM | CCC(CC)(C(=O)N[C@@H](Cc1ccc(OCc2c(Cl)cccc2Cl)cc1)C(=O)O)C(=O)N1CCC[C@H]1CN1CCCC1 [Example 53]
20 to 100 nM | < 20 nM | CCC(CC)(C(=O)N[C@@H](Cc1ccc(NC(=O)c2nc(SC)ncc2Cl)cc1)C(=O)O)C(=O)N1CCCC1 [Example 94, N-[2-(pyrrolidine-1-ylcarbonyl)-2-ethyl-butanoyl]-4-({[5-chloro-2-(methylthio)pyrimidine-4-yl]carbonyl}amino)-L-phenylalanine]
20 to 100 nM | < 20 nM | CCC(CC)(C(=O)N[C@@H](Cc1ccc(NC(=O)c2nc(S(C)(=O)=O)ncc2Cl)cc1)C(=O)O)C(=O)N1CCCC1 [Example 479, N-[2-(pyrrolidine-1-ylcarbonyl)-2-ethyl-butanoyl)-4-({[5-chloro-2-(methylsulfonyl)pyrimidine-4-yl]carbonyl}-amino)-L-phenyl-alanine]
100 to 2000 nM | 20 to 100 nM | CCC(CC)(C(=O)N[C@@H](Cc1ccc(OCc2c(Cl)cccc2Cl)cc1)C(=O)O)C(=O)N1CCCC1 [Example 32]
100 to 2000 nM | < 20 nM | CCC(CC)(C(=O)N[C@@H](Cc1ccc(OCc2c(Cl)cccc2Cl)cc1)C(=O)O)C(=O)N1C[C@H](O)C[C@H]1C(=O)OC [Example 46]
20 to 100 nM | < 20 nM | CCC(CC)(C(=O)N[C@@H](Cc1ccc(NC(=O)c2cc(Br)ccc2Cl)cc1)C(=O)O)C(=O)N1CCCC1 [Example 96]
100 to 2000 nM | 100 to 2000 nM | O=C(O)[C@H](Cc1ccc(OCc2c(Cl)cccc2Cl)cc1)NC(=O)C1(C(=O)N2CCCC2)CCOCC1 [Example 58]
100 to 2000 nM | < 20 nM | CCC(CC)(C(=O)N[C@@H](Cc1ccc(OCc2c(Cl)cccc2Cl)cc1)C(=O)O)C(=O)N1CCC[C@@H](O)C1 [Example 77]
2000 to 10000 nM | 20 to 100 nM | CCCC(CC)(C(=O)NC(Cc1ccc(OCc2c(Cl)cccc2Cl)cc1)C(=O)O)C(=O)N1CCCC1 (mixture of isomers) [Example 37]
100 to 2000 nM | < 20 nM | CCC(CC)(C(=O)N[C@@H](Cc1ccc(NC(=O)c2nc(N3CCCCC3)ncc2Cl)cc1)C(=O)O)C(=O)N1CCCC1 [Example 482]
100 to 2000 nM | 100 to 2000 nM | CCC(CC)(C(=O)N[C@@H](Cc1ccc(OCc2c(Cl)cccc2Cl)cc1)C(=O)O)C(=O)N1CCCCC1 [Example 17]
100 to 2000 nM | 100 to 2000 nM | CCC(CC)(C(=O)Nc1ccc(O)cc1)C(=O)N[C@@H](Cc1ccc(OCc2c(Cl)cccc2Cl)cc1)C(=O)O [Example 5]

SMILES | IC50 (integrin α4β1) | IC50 (integrin α4β7)
CCC(C)(C(=O)NC(Cc1ccc(OCc2c(Cl)cccc2Cl)cc1)C(=O)O)C(=O)N1CCCC1 (mixture of isomers) [Example 38] | 100 to 2000 nM | 100 to 2000 nM
CCN(C)C(=O)C(CC)(CC)C(=O)N[C@@H](Cc1ccc(OCc2c(Cl)cccc2Cl)cc1)C(=O)O [Example 41] | 100 to 2000 nM | 20 to 100 nM
O=C(O)[C@H](Cc1ccc(OCc2c(Cl)cccc2Cl)cc1)NC(=O)C1(C(=O)N2CCN(c3ccc(O)cc3)CC2)CCCC1 [Example 9] | 100 to 2000 nM | 100 to 2000 nM
CCC(CC)(C(=O)NC(Cc1ccc(OCc2c(Cl)cccc2Cl)cc1)C(=O)O)C(=O)N1CCCC(O)C1 (mixture of isomers) [Example 48] | 100 to 2000 nM | 20 to 100 nM

— patent US7160874B2, “Phenylalanine derivatives” (Ajinomoto Co., Inc., priority 1999, dated 2007)
